Data: US6664241B2, “Water-soluble amide derivatives of polyene macrolides and preparation and uses thereof” (Micrologix Biotech Inc., priority 2000, dated 2003)
Read-outs that look alike come from different tables or passages of the source.

Test: Two week range-finding toxicity study in mice
Assay type: in vivo, CD-1 mice
Conditions: both sexes, CD-1, mouse, in vivo, iv, intravenous once daily on days 1 to 5 and 8 to 12
Description: A variety of the compounds synthesized as described in Section 5, supra, were tested in various in vivo assays, as described below. The results of the various assays are provided in TABLE 3, presented at the end of this section. In all of the in vivo assays described, the test compounds, in the form of the aspartate salts, were formulated in an aqueous vehicle (5% mannitol in sterile water; OSMITROL, Baxter Healthcare, Deerfield, Ill.), followed by appropriate dilutions. The formulations were prepared fresh before dosing.
AmB and AME were also tested for comparison. For AmB, the commercially available FUNGIZONE (Bristol-Meyers Squibb Co.) was used. Reported values are based upon the weight of the AmB active ingredient, not on the basis of the weight of the FUNGIZONE powder. AME was formulated in OSMITROL as described for the test compounds.
Various polyene macrolide amide derivatives of the invention were evaluated to characterize their potential toxicity when administered subchronically by intravenous injection.
CD-1® mice (Charles River Laboratories, Portage, Mich.) were acclimated to laboratory conditions for at least 5 days before the start of dosing. During the acclimation period, the general condition of the mice was evaluated, and those considered healthy were used. The mice were randomly assigned to treatment groups using a stratified body weight regimen. Each treatment group consisted of 3 male and 3 female mice. The mice were housed in a room with a controlled environment and provided rodent chow and water ad libitum.
On the first day of dosing, the mice were approximately 7 to 9 weeks old and weighed 22 to 30 g. Doses were administered by intravenous injection once daily on study days 1 to 5 and 8 to 12. Dosages were selected based upon data from efficacy and toxicology studies, and ranged from 1.25 to 30 mg/kg/day. Clinical observations were recorded 0.5 hr after dosing on days 1, 3, 5, 8, 10, 12 and 15, and on any day a change was observed. Body weights were recorded prior to dosing and on study days 8 and 12, and on study day 15 at the completion of the in-life phase of the study.
Animals that were found in a moribund/deteriorating clinical state were euthanized (animal designated killed in extremis) by inhalation of CO2. The day of death for any animal found dead or killed in extremis was recorded. Any animal that died prematurely was removed from the study without further processing.
One day after completion of dosing (study day 16), all surviving mice were euthanized by inhalation of CO2. Their kidneys were preserved for histopathologic examination. The maximum no-observed-adverse-effect level (NOAEL) was determined on the basis of clinical and histopathologic findings. The values for AmB and AME are provided for comparison.

SMILES: C[C@@H]1[C@H](O)[C@@H](C)/C=C/C=C/C=C/C=C/C=C/C=C/C=C/[C@H](O[C@@H]2O[C@H](C)[C@@H](O)[C@H](N)[C@@H]2O)C[C@@H]2O[C@](O)(C[C@@H](O)C[C@@H](O)[C@H](O)CC[C@@H](O)C[C@@H](O)CC(=O)O[C@H]1C)C[C@H](O)[C@H]2C(=O)O [AMB, amphotericin B, reference compound]
- NOAEL at 2 week (clinical findings, read-out: NOAEL 2 week mice clinical): 0.5 mg/kg
- NOAEL at 2 week (histopathologic (kidney) findings, read-out: NOAEL 2 week mice histological): 0.85 mg/kg
